# In paper PMC8882856, “The affinity and selectivity of α‐adrenoceptor antagonists, antidepressants and antipsychotics for the human α2A, α2B, and α2C‐adrenoceptors and comparison with human α1 and β‐adrenoceptors” (Pharmacology Research & Perspectives, 2022):
# Read-outs that look alike come from different tables or passages of the source.
# How the values were obtained:
# human β2‐adrenoceptor = human β2‐adrenoceptor (Homo sapiens, UniProt P07550); assay type: binding; conditions: for IC50 (log) β2: printed as log IC50 bound (negative) in the Log KD β2 column, 3H-CGP12177
# human β2‐adrenoceptor, sequence (P07550 whole entry): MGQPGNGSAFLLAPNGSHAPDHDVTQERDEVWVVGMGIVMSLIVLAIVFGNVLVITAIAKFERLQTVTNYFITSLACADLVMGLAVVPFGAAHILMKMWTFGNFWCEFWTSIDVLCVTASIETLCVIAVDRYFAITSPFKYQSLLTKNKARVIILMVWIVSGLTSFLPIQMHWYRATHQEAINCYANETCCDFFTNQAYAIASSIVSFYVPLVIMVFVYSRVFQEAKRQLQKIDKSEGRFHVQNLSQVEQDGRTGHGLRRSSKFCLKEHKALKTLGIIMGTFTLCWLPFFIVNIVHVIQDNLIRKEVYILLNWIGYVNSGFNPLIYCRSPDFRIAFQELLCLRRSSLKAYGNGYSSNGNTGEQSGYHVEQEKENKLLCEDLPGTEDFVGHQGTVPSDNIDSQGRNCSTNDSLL
# human β1‐adrenoceptor = human β1‐adrenoceptor (Homo sapiens, UniProt P08588); conditions: for IC50 (log) β1: printed as log IC50 bound (negative) in the Log KD β1 column, 3H-CGP12177
# human β1‐adrenoceptor, sequence (P08588 whole entry): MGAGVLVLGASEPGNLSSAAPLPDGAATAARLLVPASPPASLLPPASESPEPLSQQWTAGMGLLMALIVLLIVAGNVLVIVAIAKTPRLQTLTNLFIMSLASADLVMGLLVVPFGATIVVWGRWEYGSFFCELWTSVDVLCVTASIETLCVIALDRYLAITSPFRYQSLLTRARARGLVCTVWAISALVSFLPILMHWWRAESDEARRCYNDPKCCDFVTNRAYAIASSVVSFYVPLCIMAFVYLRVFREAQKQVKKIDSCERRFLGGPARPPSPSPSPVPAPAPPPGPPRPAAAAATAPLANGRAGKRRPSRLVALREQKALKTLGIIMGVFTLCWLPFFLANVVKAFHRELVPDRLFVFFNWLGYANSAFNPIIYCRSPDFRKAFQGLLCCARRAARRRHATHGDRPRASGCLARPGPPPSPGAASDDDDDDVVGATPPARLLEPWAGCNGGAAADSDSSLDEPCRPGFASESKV
# human α2A‐adrenoceptor = molecular target: T1, human α2A‐adrenoceptor (Homo sapiens, UniProt P08913); assay: ^3H‐rauwolscine whole cell competition binding, CHO‐α2A cells
# T1 sequence (P08913 1-465): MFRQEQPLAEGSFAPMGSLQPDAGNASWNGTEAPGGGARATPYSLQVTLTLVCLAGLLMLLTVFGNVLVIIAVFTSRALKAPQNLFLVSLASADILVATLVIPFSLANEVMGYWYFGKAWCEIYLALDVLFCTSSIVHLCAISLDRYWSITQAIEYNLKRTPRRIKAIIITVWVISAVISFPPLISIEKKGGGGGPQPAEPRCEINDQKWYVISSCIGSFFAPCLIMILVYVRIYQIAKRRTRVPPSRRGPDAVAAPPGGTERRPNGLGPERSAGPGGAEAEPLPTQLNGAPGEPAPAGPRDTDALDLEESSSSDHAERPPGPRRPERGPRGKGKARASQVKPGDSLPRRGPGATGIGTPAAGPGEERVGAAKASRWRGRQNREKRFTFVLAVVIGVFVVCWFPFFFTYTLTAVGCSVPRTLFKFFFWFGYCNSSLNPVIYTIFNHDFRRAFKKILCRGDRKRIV
# human α2B‐adrenoceptor = molecular target: T2, human α2B‐adrenoceptor (Homo sapiens, UniProt P18089); assay: ^3H‐rauwolscine whole cell competition binding, CHO‐α2B cells; conditions: for IC50 (log) α2B: printed as log IC50 bound (negative) in the Log KD α2B column, 3H-rauwolscine
# T2 sequence (P18089 1-450): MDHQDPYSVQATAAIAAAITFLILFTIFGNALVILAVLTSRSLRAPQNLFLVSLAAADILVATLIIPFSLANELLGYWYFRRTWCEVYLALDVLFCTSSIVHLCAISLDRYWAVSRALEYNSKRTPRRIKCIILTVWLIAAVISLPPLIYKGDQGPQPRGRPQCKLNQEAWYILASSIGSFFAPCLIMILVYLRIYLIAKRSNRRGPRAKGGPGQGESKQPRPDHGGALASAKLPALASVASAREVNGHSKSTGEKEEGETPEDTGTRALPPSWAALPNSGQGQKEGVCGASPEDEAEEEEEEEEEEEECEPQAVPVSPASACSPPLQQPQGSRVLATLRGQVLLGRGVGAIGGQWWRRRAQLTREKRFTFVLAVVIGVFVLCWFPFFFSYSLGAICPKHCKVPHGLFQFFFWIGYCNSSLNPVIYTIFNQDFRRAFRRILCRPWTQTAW
# human α2C‐adrenoceptor = molecular target: T3, human α2C‐adrenoceptor (Homo sapiens, UniProt P18825); assay: ^3H‐rauwolscine whole cell competition binding, CHO‐α2C cells
# T3 sequence (P18825 1-462): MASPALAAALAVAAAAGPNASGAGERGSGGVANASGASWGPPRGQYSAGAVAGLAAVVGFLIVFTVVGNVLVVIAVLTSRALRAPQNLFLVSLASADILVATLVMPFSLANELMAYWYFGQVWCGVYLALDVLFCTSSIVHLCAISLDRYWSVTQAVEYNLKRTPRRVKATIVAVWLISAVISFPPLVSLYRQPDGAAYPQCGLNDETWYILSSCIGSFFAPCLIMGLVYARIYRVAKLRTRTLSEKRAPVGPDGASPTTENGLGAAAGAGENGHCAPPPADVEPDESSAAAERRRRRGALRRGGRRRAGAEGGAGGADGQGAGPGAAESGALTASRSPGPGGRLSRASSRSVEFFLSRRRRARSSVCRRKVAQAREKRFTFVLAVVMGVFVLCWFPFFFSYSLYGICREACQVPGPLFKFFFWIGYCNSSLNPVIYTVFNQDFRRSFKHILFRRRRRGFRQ
# [1] = fold, higher affinity at α2A than α2B, 1 = no selectivity
# [2] = given as log KD (negative values), 3H-rauwolscine whole cell binding, CHO cells, mean ± s.e.mean
# [3] = fold, higher affinity at α2C than α2A, 1 = no selectivity
# [4] = fold, higher affinity at α2C than α2B, 1 = no selectivity
# [5] = log KD (negative), apparent KD: maximum concentration inhibited most but not all specific binding, IC50 from extrapolated curve
compound,measurement,setting,value
COc1ccccc1N1CCN(CC2CN3C(=O)N(C)c4ccccc4C3=N2)CC1 (centres unmarked) [2-MPMDQ],IC50 (log) β2,human β2‐adrenoceptor,IC50>-5
same,IC50 (log) β1,human β1‐adrenoceptor,IC50>-5
same,Selectivity ratio α2A vs α2B (α2A-selective),human α2A‐adrenoceptor; [1],7.1
same,Log KD α2A,human α2A‐adrenoceptor; [2],-6.79 ± 0.04
same,Log KD α2B,human α2B‐adrenoceptor; [2],-5.94 ± 0.09
same,Selectivity ratio α2A vs α2C (α2C-selective),human α2C‐adrenoceptor; [3],5.1
same,Selectivity ratio α2B vs α2C (α2C-selective),human α2C‐adrenoceptor; [4],36.3
same,Log KD α2C,human α2C‐adrenoceptor; [2],-7.50 ± 0.02
O=C1Nc2ccccc2C2=NC(CN3CCN(c4ccccc4)CC3)CN12 (centres unmarked) [2-PMDQ],IC50 (log) β2,human β2‐adrenoceptor,IC50>-4
same,Log KD β1,"human β1‐adrenoceptor; given as log KD (negative values), 3H-CGP12177 whole cell binding, CHO cells, mean ± s.e.mean",No binding to -4
same,Selectivity ratio α2A vs α2B (α2A-selective),human α2A‐adrenoceptor; [1],4.9
same,Log KD α2A,human α2A‐adrenoceptor; [2],-6.83 ± 0.05
same,Log KD α2B,human α2B‐adrenoceptor; [2],-6.14 ± 0.08
same,Selectivity ratio α2A vs α2C (α2C-selective),human α2C‐adrenoceptor; [3],1.7
same,Selectivity ratio α2B vs α2C (α2C-selective),human α2C‐adrenoceptor; [4],8.5
same,Log KD α2C,human α2C‐adrenoceptor; [2],-7.07 ± 0.02
COC(=O)C1=C(C)NC(C)=C(C(=O)OCCCN2CCC(c3ccccc3)(c3ccccc3)CC2)[C@H]1c1cccc([N+](=O)[O-])c1 [2‐niguldipine],IC50,human β2‐adrenoceptor,> 100 µM
COc1ccccc1N1CCN(CCCNc2c(C)c(=O)n(C)c(=O)n2C)CC1 [5-methyl-urapidil],Log KD β2,human β2‐adrenoceptor,-5.00 ± 0.07
same,Log KD α2A,human α2A‐adrenoceptor; [2],-5.18 ± 0.05
same,Log KD α2B,human α2B‐adrenoceptor; [2],-5.17 ± 0.05
same,Log KD α2C,human α2C‐adrenoceptor; [2],-5.81 ± 0.07
COc1ccccc1N1CCN(CCCNc2c(C)c(=O)n(C)c(=O)n2C)CC1 [5‐methyl‐urapidil],Log KD β2,human β2‐adrenoceptor,−5.00 ± 0.07
same,Log KD α2A,human α2A‐adrenoceptor,−5.18 ± 0.05
same,Log KD α2B,human α2B‐adrenoceptor,−5.17 ± 0.05
same,Log KD α2C,human α2C‐adrenoceptor,−5.81 ± 0.07
COc1ccccc1N1CCN(CCN2C(=O)c3ccccc3C(C)(C)C2=O)CC1 [ARC 239],IC50 (log) β2,human β2‐adrenoceptor,IC50>-5
same,IC50 (log) β1,human β1‐adrenoceptor,IC50>-5
same,Log KD α2A,human α2A‐adrenoceptor; [2],-5.99 ± 0.06
same,Selectivity ratio α2A vs α2B (α2B-selective column),"human α2B‐adrenoceptor; fold, higher affinity at α2B than α2A, 1 = no selectivity",21.4
same,Selectivity ratio α2B vs α2C (α2B-selective column),"human α2B‐adrenoceptor; fold, higher affinity at α2B than α2C, 1 = no selectivity",1.2
same,Log KD α2B,human α2B‐adrenoceptor; [2],-7.32 ± 0.14
same,Selectivity ratio α2A vs α2C (α2C-selective),human α2C‐adrenoceptor; [3],18.2
same,Log KD α2C,human α2C‐adrenoceptor; [2],-7.25 ± 0.14
CC(C)(C)NCC(O)COc1cccc2[nH]c(=O)[nH]c12 (centres unmarked) [CGP12177],IC50,human α2A‐adrenoceptor,> 1000 µM
same,Log KD α2B,human α2B‐adrenoceptor; [2],No bind to -3
same,Binding at α2B (result in words),human α2B‐adrenoceptor; up to log concentration -3,No binding -3
same,IC50,human α2C‐adrenoceptor,> 1000 µM
Cc1ccc(OCC(O)C(C)NC(C)C)c2c1CCC2 (centres unmarked) [ICI 118551],Log KD α2A,human α2A‐adrenoceptor; [2],-5.03 ± 0.03
same,IC50 (log) α2B,human α2B‐adrenoceptor,IC50>-4
same,Log KD α2C,human α2C‐adrenoceptor; [2],-5.05 ± 0.04
CN1CC[C@]2(CCN3CCc4c(oc5ccccc45)[C@@H]3C2)N(C)C1=O [MK-912],IC50 (log) β2,human β2‐adrenoceptor,IC50>-4
same,IC50 (log) β1,human β1‐adrenoceptor,IC50>-4
same,Log KD α2A,human α2A‐adrenoceptor,-8.71 ± 0.05
same,Selectivity ratio α2A vs α2B (α2A-selective),human α2A‐adrenoceptor,3.6
same,Log KD α2B,human α2B‐adrenoceptor; [2],-8.16 ± 0.10
same,Log KD α2C,human α2C‐adrenoceptor,-9.82 ± 0.11
same,Selectivity ratio α2A vs α2C (α2C-selective),human α2C‐adrenoceptor,12.9
same,Selectivity ratio α2B vs α2C (α2C-selective),human α2C‐adrenoceptor,45.7
CC(C)(Cc1c[nH]c2ccc(Cl)cc12)NCCOc1ccccc1OCC1CC1 [RS17053],Log KD β2,human β2‐adrenoceptor,−6.42 ± 0.06
same,Log KD β1,human β1‐adrenoceptor,−5.44 ± 0.04
same,Log KD α2A,human α2A‐adrenoceptor,−6.20 ± 0.11
same,Selectivity ratio α2A vs α2B (higher affinity for α2A),human α2A‐adrenoceptor; ratio of KD values,3.5
same,Log KD α2B,human α2B‐adrenoceptor,−5.65 ± 0.07
same,Log KD α2C,human α2C‐adrenoceptor,−6.35 ± 0.08
same,Selectivity ratio α2A vs α2C (higher affinity for α2C),human α2C‐adrenoceptor; ratio of KD values,1.4
same,Selectivity ratio α2B vs α2C (higher affinity for α2C),human α2C‐adrenoceptor; ratio of KD values,5.0
COc1cc2nc(N3CCN(C(=O)COc4c(OC)cccc4C(C)C)CC3)nc(N)c2cc1OC [Rec15-2615],IC50 (log) β2,human β2‐adrenoceptor,IC50>-4
same,IC50 (log) β1,human β1‐adrenoceptor,IC50>-4
same,"Log KD α2A, apparent affinity (app)",human α2A‐adrenoceptor; [5],-5.53 ± 0.12^app
same,IC50 (log) α2B,human α2B‐adrenoceptor,IC50>-4.5
same,Selectivity ratio α2A vs α2C (α2C-selective),human α2C‐adrenoceptor; [3],10.7
same,Log KD α2C,human α2C‐adrenoceptor; [2],-6.56 ± 0.13
CC(C)(C)NC[C@H](O)COc1cccc2[nH]c(C#N)cc12 [S-cyanopindolol],Log KD α2A,human α2A‐adrenoceptor; [2],-5.56 ± 0.10
same,"Log KD α2B, apparent affinity (app)",human α2B‐adrenoceptor; [5],-4.82 ± 0.10^app
same,Log KD α2C,human α2C‐adrenoceptor; [2],-6.15 ± 0.07
